# Laboratory results from US20230391729A1, “SUCCINATE SALTS OF N-(3-(4-(3-(DIISOBUTYLAMINO)PROPYL)PIPERAZIN-1-YL)PROPYL)-1H-BENZO[D]IMIDAZOL-2-AMINE, PREPARATION THEREOF AND USE OF THE SAME” (ALZPROTECT, priority 2020, published 2023).
# Tests used:
# α-syn aggregation [1] = assay: α-synuclein aggregation in TH(+) neurons after rotenone injury; assay type: cell-based, rat; settings: rotenone 10 nM 24 h
# Procedure: (§1) Rat dopaminergic neurons were cultured as described by Visanji et al. in FASEB J. 2008, 22(7): 2488-2497 and Callizot et al., in Plos One 2019: https://doi.org/10.1371/journal.pone.0215277. Briefly, pregnant female rat (Wistar) of 15 days of gestation were killed using a deep anesthesia with CO2 chamber and a cervical dislocation. The midbrains obtained from 15-day-old rat embryos (Janvier, France) were dissected under a microscope. The embryonic midbrains were removed and placed in ice-cold medium of Leibovitz (L15) containing 2% of Penicillin-Streptomycin (PS) and 1% of BSA. The ventral portion of the mesencephalic flexure, a region of the developing brain rich in dopaminergic neurons, were used for the cell preparations. The midbrains were dissociated by trypsinization for 20 min at 37° C. (solution at a final concentration of 0.05% trypsin and 0.02% EDTA). The reaction was stopped by the addition of DMEM containing DNAase I grade II (0.5 mg/mL) and 10% of FCS. […] Viable cells were counted in a Neubauer cytometer using the trypan blue exclusion test. […]
# (§2) The following read-outs were investigated: • neuron survival: total number of TH neurons (TH staining), • neurite network: total length of neurite network of TH positive neurons (in μm) • α-syn aggregation (area of overlapping between TH and α-syn staining in μm^2) […]
# α-syn aggregation [2] = assay: α-synuclein aggregation in TH(+) neurons after MPP+ injury; assay type: cell-based, rat; settings: MPP+ 4 μM 48 h
# Procedure: as §1, §2
# [3] = system: dopaminergic (TH positive) neurons; assay: Survival and neurite network of TH(+) mesencephalic neurons after MPP+ injury; assay type: cell-based, rat; settings: MPP+ 4 μM 48 h; 50 nM dose
# Procedure: as §1, §2
# [4] = Gravimetric vapour sorption (GVS); assay type: physicochemical
# Procedure: Approximately 10-20 mg of sample was placed into a mesh vapour sorption balance pan and loaded into an IGASorp Moisture Sorption Analyser balance by Hiden Analytical. The sample was subjected to a ramping profile from 40-90% relative humidity (RH) at 10% increments, maintaining the sample at each step until a stable weight had been achieved (98% step completion, minimum step length 30 minutes, maximum step length 60 minutes) at 25° C. After completion of the sorption cycle, the sample was dried using the same procedure to 0% RH, and finally taken back to the starting point of 40% RH. Two cycles were performed. The weight change during the sorption/desorption cycles were plotted, allowing for the hygroscopic nature of the sample to be determined.
substance,measurement,setting,value
N-(3-(4-(3-(diisobutylamino)propyl)piperazin-1-yl)propyl)-1H-benzo[d]imidazol-2-amine sesqui-succinate salt [sesqui-succinate salt Form 1],α-syn aggregation,α-syn aggregation [1]; 100 nM co-administered,prevented
same,α-syn aggregation,"α-syn aggregation [1]; pre-incubated or applied directly with rotenone, 10 to 100 nM",significantly reduced
same,α-syn aggregation,"α-syn aggregation [2]; coincubation, 50 or 100 nM",significantly reduced
same,α-syn aggregation,"α-syn aggregation [2]; pre-incubation, all tested concentrations",significantly reduced
same,neurite network of TH positive neurons,[3],significantly improved
same,neuron survival: total number of TH neurons,[3],neuroprotective
same,Post-GVS XRPD crystalline form,[4]; after exposure to GVS humidity conditions,remain as the same crystalline form
same,GVS weight uptake,"[4]; at 70% RH, 25° C.",ca. +0.1 wt. %
same,GVS water uptake in equivalents,[4]; up to 90% RH,approximately 7.1 equiv. water
same,GVS weight increase,"[4]; up to 90% RH, 25° C.",ca. +18.9 wt. %
same,hygroscopicity,[4]; up to 90% relative humidity,not hygroscopic
